We go through one molecule from PMC11355195 (Life, 2024).

By IC50 is commonly meant the concentration that gives 50% inhibition.

Experiment [1] relates to peripheral blood mononuclear cells (PBMC). Put plainly: MTT cell viability, PBMC (normal cell control). Conditions: PBMC, MTT test, 72 h of treatment (Figure 3), read-out: IC50 Value ± SD, PBMC. It counts as cell-based. The procedure:
This approach determines cell viability based on the ability of living cells to decrease MTT to a purple, water-insoluble formazan product. Cells were planted in 96-well plates at a density of 1 × 10^4 cells per well in 100 μL of complete culture media, which provides all necessary nutrients for cell growth. […] The cells were then treated with the compounds for 24, 48, and 72 h to determine the effect on cell viability over varied time intervals. Following each incubation time, 20 μL of MTT solution (at a concentration of 5 mg/mL in PBS) were applied to each well. The plates were further incubated for 4 h at 37 °C, during which time live cells decrease the MTT to formazan, creating purple crystals. At the end of the incubation, the medium containing the MTT was carefully aspirated, leaving only the formazan crystals in the bottom of the wells. To dissolve these crystals, 100 μL of DMSO were administered to each well. […] This formula quantifies the reduction in cell viability in response to the treatments compared to the control. […] Cisplatin, a known anticancer drug, was used as a reference drug at varying concentrations from 0.01 to 50 µg/mL.

The nature of experiment [2]: Oxygen radical absorbance capacity (ORAC). To be noted: Trolox equivalents. The procedure:
The ORAC (Oxygen Radical Absorbance Capacity) test was carried out using a modified version of the procedure reported by Huang et al.. This test examines the antioxidant capacity of compounds by examining their ability to neutralize oxygen radicals. The method was carried out utilizing a 96-well microplate format. First, 150 µL of fluorescein solution, produced as 8 × 10^−8 M fluorescein in 0.075 M phosphate buffer (pH 7.4), were dispersed to each well. Fluorescein is a fluorescent probe whose fluorescence lowers when it reacts with radicals. Next, 25 µL of the substance or mixture to be evaluated was added to the corresponding wells. Wells containing 25 µL of phosphate buffer served as blanks, and wells containing 25 µL of Trolox solution (from 10 to 100 µm) were utilized as standards. Control wells containing 50 µL phosphate buffer without any radicals were also added to provide a baseline. The reaction was initiated by adding 25 µL of a freshly produced solution of AAPH (2,2′-azobis(2-methylpropionamidine) dihydrochloride) at a concentration of 165.94 mM in phosphate buffer to each well, except for the control wells, at a temperature of 37 °C. AAPH creates peroxyl radicals that induce oxidative stress in the fluorescein solution, simulating free-radical attack. […] The fluorescence in-tensity of the mixture was then monitored at regular intervals for 120 min.

A short description of experiment [3]: DPPH scavenging capacity. To be noted: 0.1 mM DPPH. The procedure:
The method utilized to test the compound’s efficacy in scavenging DPPH radicals was based on protocols detailed in references, with minor changes. The test was completed in duplicate for each concentration. A solution of 0.1 mM DPPH (2,2-diphenyl-1-picrylhydrazyl) was produced, and the compounds were evaluated at different concentrations ranging from 1 to 500 µg/mL. Ascorbic acid served as the positive control with concentrations ranging from 0.01 to 300 µg/mL [35].

Experiment [4] is described as follows: ABTS scavenging activity. The source says:
With a few minor adjustments, the procedure published by Re et al., was used to evaluate the test samples’ capacity to scavenge radicals against the ABTS (2,2′-azinobis-3-ethylbenzothiazoline-6-sulphonate) radical cation.

Experiment [5] has as its system MCF-7 cells. Conditions: ref Seresht et al. (2019) [79], cited from earlier work.
Experiment [6] concerns the target T1, 5-LOX (Glycine max, UniProt P08170).
T1 sequence (P08170 1-839): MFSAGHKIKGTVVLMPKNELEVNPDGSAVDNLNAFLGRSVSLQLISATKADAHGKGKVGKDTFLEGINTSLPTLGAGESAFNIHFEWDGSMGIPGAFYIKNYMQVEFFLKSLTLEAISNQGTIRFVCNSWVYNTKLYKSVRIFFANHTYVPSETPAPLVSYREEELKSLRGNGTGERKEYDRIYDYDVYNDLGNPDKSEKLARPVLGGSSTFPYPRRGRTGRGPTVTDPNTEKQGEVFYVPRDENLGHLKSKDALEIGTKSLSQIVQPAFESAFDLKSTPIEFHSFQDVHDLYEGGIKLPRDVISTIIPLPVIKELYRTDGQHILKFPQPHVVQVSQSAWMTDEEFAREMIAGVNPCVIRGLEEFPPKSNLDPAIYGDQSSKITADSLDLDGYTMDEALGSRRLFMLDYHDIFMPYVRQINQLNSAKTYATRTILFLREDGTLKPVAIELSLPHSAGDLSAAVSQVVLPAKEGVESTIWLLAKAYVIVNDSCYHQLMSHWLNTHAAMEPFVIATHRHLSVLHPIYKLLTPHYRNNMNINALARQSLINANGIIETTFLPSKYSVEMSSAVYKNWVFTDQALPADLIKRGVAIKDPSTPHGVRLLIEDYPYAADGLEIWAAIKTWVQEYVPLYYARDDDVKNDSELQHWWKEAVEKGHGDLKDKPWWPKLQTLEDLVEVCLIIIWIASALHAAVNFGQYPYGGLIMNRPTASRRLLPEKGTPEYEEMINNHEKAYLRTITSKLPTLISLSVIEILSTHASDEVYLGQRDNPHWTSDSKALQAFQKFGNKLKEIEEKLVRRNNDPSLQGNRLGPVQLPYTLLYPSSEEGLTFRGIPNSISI
Put plainly: 5-Lipoxygenase (5-LOX) inhibition.
Source text: The % inhibition of hydrogen peroxide formation, an indication of lipoxygenase inhibitory action, was computed according to the formula: Inhibition percentage%=Acontrol−Ablank−Asample−Ablank/Acontrol−Ablank where Acontrol, Ablank and ASample represent the absorbances of the control well, blank, and test sample, respectively.

Converted amounts (≈) assume the structure as drawn. Like-named read-outs stand apart in the source and are kept apart here.

On to `Cc1ccc(C(C)C)c(O)c1` [Thymol, 2-isopropyl-5-methylphenol], for which the IC50 was 307 ± 3.48 µg/mL (≈ 2050 µM) in experiment [1] and 308 µM in experiment [6]. In addition, the “Oxygen Radical Absorbance Capacity” value in experiment [2] amounted to 2.341 ± 0.009 mmol TE/g. Also, the “DPPH Scavenging Capacity IC50” value in experiment [3] amounted to 161.02 ± 6.89 µg/mL. Also, the “ABTS Scavenging Activity IC50” value in experiment [4] worked out at 125.31 ± 6.25 µg/mL. Moreover, the “IC50 on MCF-7 cells” value was 54 µg/mL (≈ 359 µM) in experiment [5] (48 h) and 62 µg/mL (≈ 413 µM) in experiment [5] (72 h).
